Measurements published in paper PMC7435868, “Structure-Based Virtual Screening, Synthesis and Biological Evaluation of Potential FAK-FAT Domain Inhibitors for Treatment of Metastatic Cancer” (Molecules, 2020).

Assays:
[1] = Microsomal metabolic stability
Method: Half-life (t1/2) values were measured at five time points.
Intrinsic clearance values (CLint) with standard error and t1⁄2 values were measured.
The final incubation volume was 50 μL. A minus cofactor control incubation was included for each compound tested where 0.1 M phosphate buffer pH 7.4 was added instead of NADPH (minus NADPH). Two control compounds were included with each species. All incubations were performed singularly for each test compound.
The reactions were stopped by transferring 20 μL of incubate to 60 μL methanol at the appropriate time points. The termination plates were centrifuged at 2500 rpm for 20 min at 4 °C to precipitate the protein.
Following protein precipitation, the sample supernatants were combined in cassettes of up to 4 compounds, the internal standard was added, and samples were analysed using Cyprotex generic LC-MS/MS conditions.
From a plot of ln peak area ratio (compound peak area/internal standard peak area) against time, the gradient of the line was determined.

[2] = Turbidimetric aqueous solubility; format: physicochemical; details: 37 °C, 2 h
Method: Both the estimated precipitation range (lower and upper bound) and a mid-range value were measured. Nicardipine and pyrene were used as control compounds.
The test compound was diluted in buffer to give a range of concentrations (1, 3, 10, 30, and 100 μM; final DMSO concentration 1%) and incubated at 37 °C for 2 hr.
The test compound (10 mM in DMSO) was serially diluted to give solutions of 0.1, 0.3, 1, and 3 mM in DMSO. Each test compound concentration was then further diluted 1 to 100 in buffer (typically 0.01 M phosphate buffered saline pH 7.4) so that the final DMSO concentration was 1%, and the final test compound concentrations were 1, 3, 10, 30, and 100 μM. The experiment was performed at 37 °C and each concentration was incubated in 7 replicate wells. The plates were incubated for 2 h at 37 °C before the absorbance was measured at 620 nm. Nicardipine and pyrene were included as control compounds. The solubility of nicardipine is pH dependent whereas the solubility of pyrene is pH independent.
An estimated precipitation range (lower and upper bound) and a calculated mid-range value were returned, along with any relevant comments, in the form of an Excel spreadsheet.

[3] = human, pooled liver microsomes, pH 7.4
[4] = buffered aqueous solution (PBS pH 7.4, 1% DMSO)

CC(C)(C)c1ccc(C(CN)c2ccc(Cl)cc2)cc1 (stereo not drawn) [Compound I]
Compound Remaining (% of 0 min), 0 min ([1]; human liver microsomes, 0 min): 100 % of 0 min
Compound Remaining (% of 0 min), 5 min ([1]; human liver microsomes, 5 min): 89.4 % of 0 min
Compound Remaining (% of 0 min), 15 min ([1]; human liver microsomes, 15 min): 92.3 % of 0 min
Compound Remaining (% of 0 min), 30 min ([1]; human liver microsomes, 30 min): 77.9 % of 0 min
Compound Remaining (% of 0 min), 45 min ([1]; human liver microsomes, 45 min): 81.3 % of 0 min
Compound Remaining (% of 0 min), Control ([1]; human liver microsomes, minus NADPH control, 45 min): 95.7 % of 0 min
half-life at 3 μM [1, 3]: 2.53 h
microsomal CLint at 3 μM [1, 3]: 9.1 µL/min/mg
Estimated Precipitation Range, Calculated Mid-Range [2, 4]: >100 µM
Estimated Precipitation Range, Lower Bound [2, 4]: 100 µM
Estimated Precipitation Range, Upper Bound [2, 4]: >100 µM
Aqueous solubility (in words) ([2]; turbidimetric): high aqueous solubility
